Entries after “also recorded” stand apart in the source; their conditions may differ. Read-outs that look alike come from different tables or passages of the source.
Experiments:
[1] = system: patients with advanced solid tumours; assay: Antitumour activity, response by WHO criteria; assay type: in vivo, human
Description: (§1) Toxicity was evaluated according to NCI CTC (Vers. 2.0; revised April 30, 1999) in all patients receiving study drug. Tumour measurement was performed in patients with measurable disease after every other cycle; response was assessed according to World Health Organization (WHO) criteria. Ascites or serum tumour marker elevations were not considered in the assessment of response status except in case of progressive disease or complete remission when both had to be normalised.

[2] = system: patients with advanced malignancies; set-up: method as in Advani et al (2003); details: single agent, weekly administration; ref Advani et al (2003); cited from earlier work
patients = system: patients; set-up: method as in Sullivan et al, 2001; details: ref Sullivan et al, 2001, cited from earlier work
[3] = Plasma pharmacokinetics of BMS-188797 in patients, cycle 1 (HPLC, noncompartmental analysis); assay type: in vivo, human; details: for AUC(0-inf) / Cmax / half-life: human, plasma, intravenous
Description: In all, 5 ml of blood were collected for pharmacokinectic analysis using Becton-Dickenson Vacutainers® that contained K3EDTA as the anticoagulant. Blood sampling for pharmacokinetics analysis was performed in all patients during cycle 1. Serial blood samples were drawn at the following times relative to the start of the 1 h infusion of BMS-188797: predose, 30 min, 58 min (drawn prior to the end of the infusion), and 1.25, 1.5, 2, 2.5, 3, 4, 5, 6, 8, 24, 48 and 72 h. Within 1 h of collection, the plasma was separated by centrifugation at 1000 rpm for 15 min at 4°C. Plasma was stored at or below […] until analysis. Plasma samples were analysed for BMS-188797 concentrations by HPLC. After the addition of internal standard, BMS-183061, to 1.0 ml of plasma, the sample was loaded onto a CN-U solid-phase extraction column. The compounds were eluted with 0.1% formic acid in methanol, the eluate evaporated to dryness, and the residue reconstituted. Chromatographic separation of the compounds was achieved on a YMC-ODS-AQ, 4.6 × 150 mm, 3 μm column using a mobile phase containing 30% water in acetonitrile. Detection was by ultraviolet absorbance at 228 nm. The standard curve range was 2–1000 ng ml^−1. The coefficient of variation (CV) for the between- and within-run precision for analytical quality control samples were no greater than 3.0 and 7.1%, respectively
Estimates of pharmacokinetic parameters for BMS-188797 were derived from individual concentration–time data sets by noncompartmental analyses ([Gibaldi and Perrier, 1982]). The values of the maximum plasma concentration (Cmax) were recorded directly from experimental observations. The area under the plasma concentration vs. time curve from time zero to the time of the last measurable concentration T (AUC0-T) was calculated using a combination of linear and log trapezoidal summations. The first-order rate constant of decline of BMS-188797 concentrations in the terminal phase of the plasma concentration–time data set, λ, was estimated by log-linear regression, using no weighting factor, of at least three data points yielding a minimum mean square error. The absolute value of λ was used to estimate the apparent terminal elimination half-life, t1/2. The last measurable concentration and the rate constant, λ, were used to extrapolate the AUC0-T to estimate AUC0-∞ (the area under the curve from time zero to infinity). The total body clearance (Cl) was calculated by dividing the dose by AUC0-∞. The volume of distribution at steady state (VSS) was calculated using standard noncompartmental methods.

[4] = system: paclitaxel-resistant tumour models in mice; set-up: method as in Rose et al, 2001; details: ref Rose et al, 2001; cited from earlier work
[5] = system: patients with advanced solid tumours; assay: Phase I dose escalation of BMS-188797 plus cisplatin: DLT, MTD and toxicity (NCI CTC v2.0); assay type: in vivo
Description: This study was an open-label, single-centre, phase I, dose-escalation trial with the primary objective to determine the MTD and DLT and to recommend a future phase II dose. Secondary objectives were safety, antitumour activity and pharmacokinetics of the experimental drug. The study was carried out with ethical committee approval.
BMS-188797 administered by a 1-h infusion was followed by a 1-h infusion of cisplatin starting 30 min after the end of the BMS-188797 infusion; both drugs were given on day 1, every 3 weeks. Six treatment cycles were planned. Treatment had to be discontinued upon progression or occurance of intolerable toxicity.
If no further DLT occurred, the next DL was opened. If the total number of patients with DLT at any DL was two or higher, then dose escalation was terminated and additional patients were enrolled at the next lower DL. The MTD was defined as the DL at which none of the three or one of six patients experienced a DLT. Once the MTD had been established, accrual at the respective DL was expanded to determine its suitability as the recommended phase II dose.
The DLT was defined as first-course toxicity with ANC <500 μl^−1 for ⩾5 days, or febrile neutropenia (fever >38.5°C and ANC <1000 μl^−1), or thrombocytopenia <25,000 μl^–1; or bleeding requiring platelet transfusion, or any other drug-related grade ⩾3 toxicity except fatigue/asthenia, transient arthralgia/myalgia, or grade 3 AST/ALT elevation (resolving to baseline within 3 weeks). Furthermore, delayed recovery from toxicity related to treatment with BMS-188797 and cisplatin that delayed scheduled retreatment for 21 days or longer was regarded as DLT.
as §1

[6] = system: human tumour cell lines highly resistant to paclitaxel; set-up: method as in Rose et al, 2001; details: ref Rose et al, 2001, cited from earlier work
[7] = system: patients with advanced malignancies; set-up: method as in Sullivan et al, 2000; details: single agent, 1-h infusion every 3 weeks; ref Sullivan et al, 2000; cited from earlier work
[8] = system: patients with advanced malignancies; set-up: method as in Advani et al, 2002; details: weekly BMS-188797 with carboplatin, DLs AUC 6/33 mg m−2 and AUC 5/43 mg m−2, preliminary data; ref Advani et al, 2002; cited from earlier work
[9] = 80 mg m−2 1-h infusion with cisplatin 75 mg m−2, cycle 1, n=3, mean±s.d.
[10] = 110 mg m−2 1-h infusion with cisplatin 75 mg m−2, cycle 1, n=12, mean±s.d.
[11] = 150 mg m−2 1-h infusion with cisplatin 75 mg m−2, cycle 1, n=1
[12] = mean±s.d. of the three dose groups (80, 110, 150 mg m−2), cycle 1
[13] = 1-h infusion every 3 weeks combined with cisplatin 75 mg m−2

SMILES: COC(=O)O[C@@]12CO[C@@H]1C[C@H](O)[C@@]1(C)C(=O)[C@H](OC(C)=O)C3=C(C)[C@@H](OC(=O)[C@H](O)[C@@H](NC(=O)c4ccccc4)c4ccccc4)C[C@@](O)([C@@H](OC(=O)c4ccccc4)[C@H]21)C3(C)C [BMS-188797, 4-desacetyl-4-methyl carbonate derivate of paclitaxel]
- stable disease as best response, patients ([1]; DL 1, 80 mg m−2 with cisplatin, ovarian cancer, NSCLC, CUP): three patients
- progressive disease, patients ([1]; DL 2, 110 mg m−2 with cisplatin, lung cancer (two), ovarian sarcoma, CUP): Four patients
- complete remissions ([1]; DL 2, 110 mg m−2 with cisplatin, ovarian (two) and cervical cancer (one)): three complete remissions
- partial response ([1]; DL 2, 110 mg m−2 with cisplatin, ovarian cancer): One partial response
- stable disease, patients ([1]; DL 2, 110 mg m−2 with cisplatin, urachus carcinoma and NSCLC): two patients
- best response of the only patient treated ([1]; DL 3, 150 mg m−2 with cisplatin, CUP): disease progression
- objective response, patients ([1]; all dose levels, 16 patients): four patients
- MTD [2]: 50 mg m^−2
- MTD (patients; with carboplatin AUC 5, every 3 weeks): 125 mg m^−2
- Dose-limiting toxicities (DLT) (patients; with carboplatin, every 3 weeks): febrile neutropenia and slow recovery from neutropenia
- Cl [3, 9]: 333±14 (317, 344) ml min−1 m−2
- VSS [3, 9]: 331±135 (214, 478) l m−2
- interpatient coefficient of variation of CL ([3]; 110 mg m−2): 19%
- interpatient coefficient of variation of VSS ([3]; 110 mg m−2): 35%
- interpatient coefficient of variation of t1/2 ([3]; 110 mg m−2): 24%
- Cl [3, 10]: 322±60 (234, 437) ml min−1 m−2
- VSS [3, 10]: 244±86 (115, 395) l m−2
- range of AUC0-∞ values ([3]; 110 mg m−2 DL): 1.8 fold
- Cl [3, 11]: 206 NA ml min−1 m−2
- VSS [3, 11]: 209 NA l m−2
- dose dependence (linearity) of pharmacokinetics ([3]; 80-150 mg m−2 with cisplatin 75 mg m−2): appeared linear through the 110 mg m^−2, but not through the 150 mg m^−2 DL; also recorded: appeared independent of dose through the 110 mg m^−2 DL, but not through the 150 mg m^−2 DL; also recorded: appeared linear through a DL of 110 mg m^−2
- AUC(0-inf) [3, 9]: 4000 ± 184 ng·h/mL
- Cmax [3, 9]: 2650 ± 690 ng/mL
- half-life ([3]; 80 mg m−2 1-h infusion with cisplatin 75 mg m−2, cycle 1, n=3, mean±s.d., read-out: t1/2 (converted)): 31 ± 11.7 h
- AUC(0-inf) [3, 10]: 5870 ± 1060 ng·h/mL
- Cmax [3, 10]: 3370 ± 591 ng/mL
- half-life ([3]; 110 mg m−2 1-h infusion with cisplatin 75 mg m−2, cycle 1, n=12, mean±s.d., read-out: t1/2 (converted)): 30.6 ± 7.5 h
- AUC(0-inf) [3, 11]: 12200 ng·h/mL
- Cmax [3, 11]: 5770 ng/mL
- half-life ([3]; 150 mg m−2 1-h infusion with cisplatin 75 mg m−2, cycle 1, n=1, read-out: t1/2 (converted)): 31.4 h
- half-life ([3]; 150 mg, mean±s.d. of the three dose groups (80, 110, 150 mg m−2), cycle 1, read-out: terminal half-life (converted)): 30.8 ± 7.7 h
- clearance [3, 12]: 317±60 ml min^−1 m^−2
- volume of distribution at steady state [3, 12]: 258±96 l m^−2
- clearance in the 150 mg m−2 patient relative to patients at 80 or 110 mg m−2 ([3]; n=1 at 150 mg m−2): approximately one-third lower
- in vivo activity [4]: potent in vivo activity
- Mild hypersensitivity reactions (grade 2 rash and dyspnea), patients affected ([5]; 110 mg m−2 DL, with steroid and H1/H2-antagonist premedication): only one patient
- maximum tolerated dose (MTD) [5, 13]: 110 mg m^−2
- recommended phase II dose [5, 13]: 110 mg m^−2
- median duration of neutropenia ([5]; DL 1, 80 mg m−2): 4 days
- median time to the neutrophil nadir ([5]; DL 1, 80 mg m−2): 12 days
- median duration of neutropenia ([5]; DL 2, 110 mg m−2): 8 days
- median time to the neutrophil nadir ([5]; DL 2, 110 mg m−2): 14 days
- MTD (dose level designated) ([5]; DL 2, 110 mg m−2 with cisplatin 75 mg m−2): MTD
- median duration of neutropenia ([5]; DL 3, 150 mg m−2): 4 days
- median time to the neutrophil nadir ([5]; DL 3, 150 mg m−2): 8 days
- alopecia, patients affected ([5]; all dose levels, 16 patients): All patients but one
- antiproliferative activity ([6]; cell lines resistant through P-glycoprotein overexpression or beta-tubulin mutations): potent antiproliferative activity
- cell cycle effect [6]: G2/M cell cycle arrest
- maximum tolerated dose (MTD) [7]: 175 mg m^−2
- dose-limiting toxicities [8]: prolonged grade 4 neutropenia and delayed haematological recovery

Reference: PMC2361071, “A phase I and pharmacokinetic study of novel taxane BMS-188797 and cisplatin in patients with advanced solid tumours” (British Journal of Cancer, 2005)
